In ChEMBL document CHEMBL1201862, “PubChem BioAssay data set” (2004):
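48-hour exposure; five concentrations; linearly interpolated endpoints. Abbreviation: GI50, concentration required for 50% inhibition of growth.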 Active and inactive are the calls of the source. No stated cut-off is given here; in the data, active = GI50 up to about 1.1 µM and inactive = higher.

Columns and labels:
Assay in all cases: growth of human tumour cells (NCI), 48 h
A498 = system: A498
HCC 2998 = system: HCC 2998
SF-539 = system: SF-539
DU-145 = system: DU-145
SN12C = system: SN12C
MCF7 = system: MCF7
Malme-3M = system: Malme-3M
HCT-116 = system: HCT-116
RPMI-8226 = system: RPMI-8226
SNB-75 = system: SNB-75
KM12 = system: KM12
CAKI-1 = system: CAKI-1
OVCAR-3 = system: OVCAR-3
SF-268 = system: SF-268
OVCAR-8 = system: OVCAR-8
SK-OV-3 = system: SK-OV-3
CCRF-CEM = system: CCRF-CEM
SK-MEL-5 = system: SK-MEL-5
SW-620 = system: SW-620
M14 = system: M14
HL-60 = system: HL-60
HCT-15 = system: HCT-15
NCI-H23 = system: NCI-H23
A549 = system: A549
786-0 = system: 786-0
NCI-H522 = system: NCI-H522
NCI/ADR-RES = system: NCI/ADR-RES
OVCAR-4 = system: OVCAR-4
UACC-62 = system: UACC-62
MDA-N = system: MDA-N
EKVX = system: EKVX
NCI-H226 = system: NCI-H226
PC-3 = system: PC-3
HOP-92 = system: HOP-92
OVCAR-5 = system: OVCAR-5
SNB-19 = system: SNB-19
K562 = system: K562
HT-29 = system: HT-29
SK-MEL-28 = system: SK-MEL-28
SF-295 = system: SF-295
SR = system: SR
U-251 = system: U-251
MDA-MB-231 = system: MDA-MB-231
TK-10 = system: TK-10
ACHN = system: ACHN
Hs-578T = system: Hs-578T
IGROV-1 = system: IGROV-1
BT-549 = system: BT-549
LOX IMVI = system: LOX IMVI
COLO 205 = system: COLO 205
T47D = system: T47D
MOLT-4 = system: MOLT-4
HOP-62 = system: HOP-62
RXF 393 = system: RXF 393
NCI-H460 = system: NCI-H460
UACC-257 = system: UACC-257
UO-31 = system: UO-31
MDA-MB-435 = system: MDA-MB-435
SK-MEL-2 = system: SK-MEL-2

## CN(C)P(=O)(Oc1ccc(CC(NC(=O)OCc2ccccc2)C(=O)OCc2ccccc2)cc1)N(C)C (configuration not stated)
A498
  GI50: 19.4 µM (inactive)
HCC 2998
  GI50: 18.3 µM (inactive)
SF-539
  GI50: 22.3 µM (inactive)
DU-145
  GI50: 15.7 µM (inactive)
SN12C
  GI50: 15.1 µM (inactive)
MCF7
  GI50: 12.4 µM (inactive)
Malme-3M
  GI50: 17.3 µM (inactive)
HCT-116
  GI50: 15.9 µM (inactive)
RPMI-8226
  GI50: 2.77 µM (inactive)
SNB-75
  GI50: 17.2 µM (inactive)
KM12
  GI50: 20 µM (inactive)
CAKI-1
  GI50: 17.6 µM (inactive)
OVCAR-3
  GI50: 3.43 µM (inactive)
SF-268
  GI50: 13.4 µM (inactive)
OVCAR-8
  GI50: 15.9 µM (inactive)
SK-OV-3
  GI50: 17.8 µM (inactive)
CCRF-CEM
  GI50: 2.43 µM (inactive)
SK-MEL-5
  GI50: 20.7 µM (inactive)
SW-620
  GI50: 18.2 µM (inactive)
M14
  GI50: 13.4 µM (inactive)
HL-60
  GI50: 13.2 µM (inactive)
HCT-15
  GI50: 17.4 µM
NCI-H23
  GI50: 14.1 µM (inactive)
A549
  GI50: 19.2 µM (inactive)
786-0
  GI50: 4.94 µM (inactive)
NCI-H522
  GI50: 13.9 µM (inactive)
NCI/ADR-RES
  GI50: 17.9 µM (inactive)
OVCAR-4
  GI50: 20.7 µM (inactive)
UACC-62
  GI50: 15.2 µM (inactive)
MDA-N
  GI50: 16.8 µM (inactive)
EKVX
  GI50: 15.7 µM (inactive)
NCI-H226
  GI50: 26.4 µM (inactive)
PC-3
  GI50: 15.2 µM (inactive)
HOP-92
  GI50: 17.8 µM (inactive)
OVCAR-5
  GI50: 20 µM (inactive)
SNB-19
  GI50: 20 µM (inactive)
K562
  GI50: 22.7 µM (inactive)
HT-29
  GI50: 10.1 µM (inactive)
SK-MEL-28
  GI50: 16.8 µM (inactive)
SF-295
  GI50: 18.2 µM (inactive)
SR
  GI50: 4.56 µM (inactive)
U-251
  GI50: 13.8 µM (inactive)
MDA-MB-231
  GI50: 17.5 µM (inactive)
TK-10
  GI50: 21.7 µM (inactive)
ACHN
  GI50: 18.5 µM (inactive)
Hs-578T
  GI50: 24.4 µM (inactive)
IGROV-1
  GI50: 17.2 µM (inactive)
BT-549
  GI50: 17.1 µM (inactive)
LOX IMVI
  GI50: 16 µM (inactive)
COLO 205
  GI50: 20.9 µM (inactive)
T47D
  GI50: 21 µM (inactive)
MOLT-4
  GI50: 3.35 µM (inactive)
HOP-62
  GI50: 17.1 µM (inactive)
RXF 393
  GI50: 17.5 µM (inactive)
NCI-H460
  GI50: 21 µM (inactive)
UACC-257
  GI50: 21.4 µM (inactive)
UO-31
  GI50: 18.5 µM (inactive)
MDA-MB-435
  GI50: 12.2 µM (inactive)
SK-MEL-2
  GI50: 15.6 µM (inactive)

## CC(C)NC(=O)OCc1c(COC(=O)NC(C)C)c(-c2ccc[n+](COC(=O)Cc3ccccc3)c2)n2c1CCC2
A498
  GI50: 22.5 µM (inactive)
HCC 2998
  GI50: > 100 µM (inactive)
SF-539
  GI50: 34.5 µM (inactive)
DU-145
  GI50: 25.4 µM (inactive)
SN12C
  GI50: 30.2 µM (inactive)
MCF7
  GI50: 25.1 µM (inactive)
Malme-3M
  GI50: 49 µM (inactive)
HCT-116
  GI50: 30.4 µM (inactive)
RPMI-8226
  GI50: 23.6 µM (inactive)
SNB-75
  GI50: 24.3 µM (inactive)
KM12
  GI50: > 100 µM (inactive)
CAKI-1
  GI50: 9.48 µM (inactive)
OVCAR-3
  GI50: 41 µM (inactive)
SF-268
  GI50: 26.9 µM (inactive)
OVCAR-8
  GI50: 37.8 µM (inactive)
SK-OV-3
  GI50: 29.2 µM (inactive)
CCRF-CEM
  GI50: 54.7 µM (inactive)
SK-MEL-5
  GI50: 33.4 µM (inactive)
SW-620
  GI50: 22.5 µM (inactive)
M14
  GI50: 40.2 µM (inactive)
HL-60
  GI50: > 100 µM (inactive)
HCT-15
  GI50: 55.5 µM
NCI-H23
  GI50: 21.3 µM (inactive)
A549
  GI50: 44.8 µM (inactive)
786-0
  GI50: 17.3 µM (inactive)
NCI-H522
  GI50: 19 µM (inactive)
NCI/ADR-RES
  GI50: 36.6 µM (inactive)
OVCAR-4
  GI50: 25 µM (inactive)
UACC-62
  GI50: 17 µM (inactive)
MDA-N
  GI50: 80 µM (inactive)
EKVX
  GI50: 85.5 µM (inactive)
NCI-H226
  GI50: 77.3 µM (inactive)
PC-3
  GI50: 34 µM (inactive)
HOP-92
  GI50: 16.4 µM (inactive)
OVCAR-5
  GI50: 36.1 µM (inactive)
SNB-19
  GI50: 94.8 µM (inactive)
K562
  GI50: 71 µM (inactive)
HT-29
  GI50: 26.1 µM (inactive)
SK-MEL-28
  GI50: > 100 µM (inactive)
SF-295
  GI50: 35 µM (inactive)
SR
  GI50: 3.15 µM (inactive)
U-251
  GI50: 29.1 µM (inactive)
MDA-MB-231
  GI50: 26.2 µM (inactive)
TK-10
  GI50: 45 µM (inactive)
ACHN
  GI50: 13.2 µM (inactive)
Hs-578T
  GI50: 48.1 µM (inactive)
IGROV-1
  GI50: 75.3 µM (inactive)
BT-549
  GI50: 24.1 µM (inactive)
LOX IMVI
  GI50: 24 µM (inactive)
COLO 205
  GI50: 41.7 µM (inactive)
T47D
  GI50: 28.7 µM (inactive)
MOLT-4
  GI50: 6.76 µM (inactive)
HOP-62
  GI50: 31.7 µM (inactive)
RXF 393
  GI50: 23 µM (inactive)
NCI-H460
  GI50: 19.8 µM (inactive)
UACC-257
  GI50: 58.9 µM (inactive)
UO-31
  GI50: 27.5 µM (inactive)
MDA-MB-435
  GI50: 71.1 µM (inactive)
SK-MEL-2
  GI50: 28.1 µM (inactive)

## O=C1c2c(F)c(F)c(F)c(F)c2SC2=NCCN12
A498
  GI50: 18.4 µM (inactive)
HCC 2998
  GI50: 14.5 µM (inactive)
SF-539
  GI50: 16.3 µM (inactive)
DU-145
  GI50: 17.3 µM (inactive)
SN12C
  GI50: 9.25 µM (inactive)
MCF7
  GI50: 8.15 µM (inactive)
Malme-3M
  GI50: 5.65 µM (inactive)
HCT-116
  GI50: 2.15 µM (inactive)
RPMI-8226
  GI50: 4 µM (inactive)
SNB-75
  GI50: 16 µM (inactive)
KM12
  GI50: 12.6 µM (inactive)
CAKI-1
  GI50: 3.1 µM (inactive)
OVCAR-3
  GI50: 4.91 µM (inactive)
SF-268
  GI50: 12.8 µM (inactive)
OVCAR-8
  GI50: 11.5 µM (inactive)
SK-OV-3
  GI50: 15.3 µM (inactive)
CCRF-CEM
  GI50: 2.39 µM (inactive)
SK-MEL-5
  GI50: 14.8 µM (inactive)
SW-620
  GI50: 2.38 µM (inactive)
M14
  GI50: 4.53 µM (inactive)
HL-60
  GI50: 2.19 µM (inactive)
HCT-15
  GI50: 2.81 µM
NCI-H23
  GI50: 5.42 µM (inactive)
A549
  GI50: 14.7 µM (inactive)
786-0
  GI50: 7.26 µM (inactive)
NCI-H522
  GI50: 2.82 µM (inactive)
NCI/ADR-RES
  GI50: 10.4 µM (inactive)
OVCAR-4
  GI50: 3.12 µM (inactive)
UACC-62
  GI50: 5.04 µM (inactive)
MDA-N
  GI50: 3.45 µM (inactive)
EKVX
  GI50: 19.3 µM (inactive)
NCI-H226
  GI50: 16.2 µM (inactive)
PC-3
  GI50: 13.6 µM (inactive)
HOP-92
  GI50: 3.78 µM (inactive)
OVCAR-5
  GI50: 15.4 µM (inactive)
SNB-19
  GI50: 15.3 µM (inactive)
K562
  GI50: 2.1 µM (inactive)
HT-29
  GI50: 3.18 µM (inactive)
SK-MEL-28
  GI50: 9.38 µM (inactive)
SF-295
  GI50: 17.5 µM (inactive)
SR
  GI50: 1.15 µM (inactive)
U-251
  GI50: 8.87 µM (inactive)
MDA-MB-231
  GI50: 8.75 µM (inactive)
TK-10
  GI50: 8.69 µM (inactive)
ACHN
  GI50: 8.41 µM (inactive)
Hs-578T
  GI50: 14.2 µM (inactive)
IGROV-1
  GI50: 7.19 µM (inactive)
BT-549
  GI50: 14.8 µM (inactive)
LOX IMVI
  GI50: 1.61 µM (inactive)
COLO 205
  GI50: 7.23 µM (inactive)
T47D
  GI50: 12.5 µM (inactive)
MOLT-4
  GI50: 2.24 µM (inactive)
HOP-62
  GI50: 18.1 µM (inactive)
RXF 393
  GI50: 2.47 µM (inactive)
NCI-H460
  GI50: 6.53 µM (inactive)
UACC-257
  GI50: 8.57 µM (inactive)
UO-31
  GI50: 10.1 µM (inactive)
MDA-MB-435
  GI50: 2.85 µM (inactive)
SK-MEL-2
  GI50: 1.84 µM (inactive)
